Measurements reported in EP1397353B1, “2-(2,6-DISUBSTITUTED PHENYL)-4-ARYL-5-ALKYL-1,3-OXAZOLINE COMPOUNDS USEFUL AS INSECTICIDES AND ACARICIDES” (Dow AgroSciences LLC, priority 2001, dated 2003).

Tests used:
Format in all cases: in vivo
[1] = system: tobacco budworm (Heliothis virescens); assay: Insecticidal test for tobacco budworm (leaf-dip, cotton cotyledon discs); conditions: dipped cotton cotyledon discs, 2nd instar larvae, 5 days, rating of % Control; for pest or weed control at 400 ppm: Heliothis virescens, 120 h, read-out: TBW, activity at 400 ppm against tobacco budworm
Protocol: (§1) Insecticidal test for tobacco budworm (Heliothis virescens), beet armyworm (Spodoptera exigua), and cabbage looper (Trichoplusia ni).
(§2) To prepare test solution, the test compound was formulated at 400 ppm in 7.5 mL of 2 acetone: 1 tap water. 250 µL of the test solution was pipetted upon the surface of 8 mL of lepidopteran diet (modified Shorey) contained in each of five one-ounce plastic cups (one cup = 1 replication). […] After airdrying, the treated leaf discs were placed individually into one-ounce plastic cups. Each dried, treated cotton cotyledon disc was infested with a 2nd instar tobacco budworm larva, and each cabbage leaf disc was infested with a 2nd instar cabbage looper larva. Cups containing the treated substrates and larvae were capped and then held in a growth chamber at 25 °C, 50-55% RH, and 14 hr light: 10 hr dark for 5 days.

[2] = system: beet armyworm (Spodoptera exigua); assay: Insecticidal test for beet armyworm (treated lepidopteran diet); conditions: 2nd instar larvae, 5 days, rating of % Control; for pest or weed control at 400 ppm: Spodoptera exigua, 120 h, read-out: BAW, activity at 400 ppm against beet armyworm
Protocol: as §1, §2

[3] = system: cabbage looper (Trichoplusia ni); assay: Insecticidal test for cabbage looper (leaf-dip, cabbage leaf discs); conditions: dipped cabbage leaf discs, 2nd instar larvae, 5 days, rating of % Control; for pest or weed control at 400 ppm: Trichoplusia ni, foliar, 120 h, read-out: CL, activity at 400 ppm against cabbage looper
Protocol: as §1, §2

[4] = system: two-spotted spider mite (Tetranychus urticae); assay: Insecticidal test for two-spotted spider mite, ovicide method; conditions: for pest or weed control: Tetranychus urticae, read-out: SM, activity against two-spotted spider mite
Protocol: Insecticidal test for two-spotted spider mite (Tetranychus urticae)
Ten adult female two-spotted spider mites were placed on eight 2.2 cm leaf discs of cotton leaf, allowed to oviposit over 24 hours, and thereafter removed. […] Discs were placed on an agar substrate and held at 24 °C and 90% RH for 6 days.

[5] = foliar, 144 h, ovicide method, cotton leaf discs, 6 days, rating of % Control

Compound	pest or weed control at 400 ppm [1]	pest or weed control at 400 ppm [2]	pest or weed control at 400 ppm [3]	CL, activity at 400 ppm against cabbage looper [3]	other results
C[C@@H]1OC(c2c(F)cccc2F)=N[C@H]1c1ccc(-c2ccccc2F)cc1 (mixture of isomers) [Compound 31, (4S,5S)- and (4R,5R)-2-(2,6-difluorophenyl)-4-(2'-fluoro-1,1'-biphenyl-4-yl)-5-methyl-4,5-dihydro-1,3-oxazole]	< 50%	< 50%	90 to 100%	–	pest or weed control [4, 5]: 90 to 100%
Cc1ccc(-c2ccc([C@@H]3N=C(c4c(F)cccc4F)O[C@@H]3C)cc2)cc1 (mixture of isomers) [Compound 9, (4S,5R)- and (4R,5S)-2-(2,6-difluorophenyl)-5-methyl-4-(4'-methyl-1,1'-biphenyl-4-yl)-4,5-dihydro-1,3-oxazole]	< 50%	90 to 100%	90 to 100%	–	–
CCOc1ccc(-c2ccc([C@@H]3N=C(c4c(F)cccc4F)O[C@H]3C)cc2)cc1 (mixture of isomers) [Compound 33, (4S,5S)- and (4R,5R)-2-(2,6-difluorophenyl)-4-(4'-ethoxy-1,1'-biphenyl-4-yl)-5-methyl-4,5-dihydro-1,3-oxazole]	80 to 89%	90 to 100%	90 to 100%	–	pest or weed control [4, 5]: 80 to 89%
C[C@@H]1OC(c2c(F)cccc2F)=N[C@H]1c1ccc(-c2ccc(Cl)cc2)cc1 (mixture of isomers) [Compound 37, (4S,5S)- and (4R,5R)-4-(4'-chloro-1,1'-biphenyl-4-yl)-2-(2,6-difluorophenyl)-5-methyl-4,5-dihydro-1,3-oxazole]	90 to 100%	90 to 100%	90 to 100%	–	–
C[C@@H]1OC(c2c(F)cccc2F)=N[C@@H]1c1ccc(-c2ccc(C(F)(F)F)cc2)cc1 (racemic) [Compound 5, (4R,5S)- and 4S,5R)-2-(2,6-difluorophenyl)-5-methyl-4-(4'-(trifluoromethyl)-1,1'-biphenyl-4-yl]-4,5-dihvdro-1,3-oxazole]	–	–	–	A (90-100)	BAW, activity at 400 ppm against beet armyworm [2]: A (90-100); SM, activity at 2.5 ppm against two-spotted spider mite ([4]; foliar, 144 h): A (90-100)
C[C@H]1OC(c2c(F)cccc2F)=N[C@H]1c1ccc(-c2cccc(C(F)(F)F)c2)cc1 (mixture of isomers) [Compound 11, (4S,5R)- and (4R,5S)-2-(2,6-difluorophenyl)-5-methyl-4-[3'-(trifluoromethyl)-1,1'-biphenyl-4-yl]-4,5-dihydro-1,3-oxazole]	80 to 89%	90 to 100%	90 to 100%	–	–
Cc1ccc(-c2ccc([C@@H]3N=C(c4c(F)cccc4F)O[C@H]3C)cc2)cc1 (mixture of isomers) [Compound 36, (4S,5S)- and (4R,5R)-2-(2,6-difluorophenyl)-5-methyl-4-(4'-methyl-1,1'-biphenyl-4-yl)-4,5-dihydro-1,3-oxazole]	< 50%	< 50%	90 to 100%	–	–
C[C@@H]1OC(c2c(F)cccc2F)=N[C@@H]1c1ccc(-c2ccc3c(c2)OC(F)(F)O3)cc1 (mixture of isomers) [Compound 13, (4R,5S)- and (4S,5R)-4-[4-(2,2-difluoro-1,3-benzodioxol-5-yl)phenyl]-2-(2,6-difluorophenyl)-5-methyl-4,5-dihydro-1,3-oxazole]	< 50%	–	90 to 100%	–	–
Cc1ccc(-c2ccc([C@@H]3N=C(c4c(F)cccc4F)O[C@H]3C)cc2)cc1C (mixture of isomers) [Compound 29, (4S,5S)- and (4R,5R)-2-(2,6-difluorophenyl)-4-(3',4'-dimethyl-1,1'-biphenyl-4-yl)-5-methyl-4,5-dihydro-1,3-oxazole]	< 50%	60 to 69%	90 to 100%	–	–
Cc1cc(Br)ccc1[C@@H]1N=C(c2c(F)cccc2F)O[C@H]1C (mixture of isomers) [Compound 42, (4S,5S)- and (4R,5R)-4-(4-bromo-2-methylphenyl)-2-(2,6-difluorophenyl)-5-methyl-4,5dihydro-1,3-oxazole]	< 50%	–	–	–	–
C[C@@H]1OC(c2c(F)cccc2F)=N[C@@H]1c1ccc(-c2ccccc2F)cc1 (racemic) [Compound 15, (4R,5S)- and (4S,5R)-2-(2,6-difluorophenyl)-4-2'-fluoro-1,1'-biphenyl-4-yl)-5-methyl-4,5-dihydro-1,3-oxazole]	–	–	–	A (90-100)	–
C[C@@H]1OC(c2c(F)cccc2F)=N[C@@H]1c1ccc(-c2ccc(C(F)(F)F)cc2F)cc1 (mixture of isomers) [Compound 16, (4R,5S)- and (4S,5R)-2-(2,6-difluorophenyl)-4-[2'-fluoro-4'-(trifluoromethyl)-1,1'-biphenyl-4-yl]-5-methyl-4,5-dihydro-1,3-oxazole]	90 to 100%	90 to 100%	90 to 100%	–	–
C[C@H]1OC(c2c(F)cccc2F)=N[C@H]1c1ccc(-c2ccc(Cl)cc2)cc1 (mixture of isomers) [Compound 10, (4S,5R)- and (4R,5S)-4-(4'-chloro-1,1'-biphenyl-4-yl)-2-(2,6-difluorophenyl)-5-methyl-4,5-dihydro-1,3-oxazole]	90 to 100%	90 to 100%	90 to 100%	–	–
(4R,5R)- and (4S,5S)-4-(4-bromophenyl)-2-(2-chloro-6-fluorophenyl)-5-methyl-4,5-dihydro-1,3-oxazole [Compound 23]	–	–	–	F (less than 50)	TBW, activity at 400 ppm against tobacco budworm [1]: B (80-89); SM, activity at 2.5 ppm against two-spotted spider mite ([4]; ovicide method, cotton leaf discs, 6 days, rating of % Control): A (90-100)
C[C@@H]1OC(c2c(F)cccc2F)=N[C@H]1c1ccc(-c2ccc(OC(F)(F)F)cc2)cc1 [Compound 47]	–	–	–	A (90-100)	BAW, activity at 400 ppm against beet armyworm [2]: A (90-100); SM, activity at 2.5 ppm against two-spotted spider mite ([4]; foliar, 144 h): A (90-100)
C[C@@H]1OC(c2c(F)cccc2F)=N[C@H]1c1ccc(-c2ccc3c(c2)OC(F)(F)O3)cc1 (mixture of isomers) [Compound 34, (4S,5S)- and (4R,5R)-4-[4-(2,2-difluoro-1,3-benzodioxol-5-yl)phenyl]-2-(2,6-difluorophenyl)-5-methyl-4,5-dihydro-1,3-oxazole]	< 50%	–	90 to 100%	–	–
CCOc1ccc(-c2ccc([C@H]3N=C(c4c(F)cccc4F)O[C@H]3C)cc2)cc1 (racemic) [Compound 12, (4R,5S)- and (4S,5R)-2-(2,6-difluorophenyl)-4-(4'-ethoxy-1,1'-bphenyl-4-yl)-5-methyl-4,5-dihydro-1,3-oxazole]	–	–	–	A (90-100)	TBW, activity at 400 ppm against tobacco budworm [1]: B (80-89); BAW, activity at 400 ppm against beet armyworm [2]: A (90-100)
(4R,5R)- and (4S,5S)-4-phenyl-2-(2,6-difluorophenyl)-5-methyl-4,5-dihydro-1,3-oxazole [Compound 35]	–	–	–	F (less than 50)	TBW, activity at 400 ppm against tobacco budworm [1]: F (less than 50)
